Data taken from US12692274B2, “Tetrahydroisoquinoline derivatives for the treatment of red blood disorders and inflammatory diseases” (Sanofi, priority 2020, dated 2026).
pEC50, pIC50: −log10 of the molar value. Several values for one entry are separate records, joined by “and”; a condition that tells them apart may be missing. Equal entries are not always repeated. Where two headings read alike, the source gives them in different places.

Experiments:
[1] = biological target: HIS-Keap1 full length / Biotin-Nrf2 (16-mer) (Homo sapiens, UniProt Q14145); assay: biochemical
[2] = tested on: NQO1 activation in BEAS-2B cells; assay: BEAS-2B cellular MTT assay of NQO1 activation, 0.3% HSA; format: cell-based; conditions: BEAS+, read-out: BEAS+ EC50
Summary of the method: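 BEAS-2B cells (<70% confluent in culture, BEBM/SingleQuots without GA-1000) seeded in collagen plates with 0.3% or 0% HSA, reaching 95-100% confluency after 48 h at 37 °C, 5% CO2; MTT read-out.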

[3] = tested on: NQO1 activation in BEAS-2B cells; assay: BEAS-2B cellular MTT assay of NQO1 activation, 0% HSA; format: cell-based; conditions: serum free, read-out: BEAS EC50 (nM) serum free
Summary of the method: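 BEAS-2B cells grown in BEBM with BEGM SingleQuots (no GA-1000), kept below 70% confluence, seeded on collagen plates at a density giving 95-100% confluence after 48 h. Plates seeded in medium without HSA (0% HSA condition).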

[4] = the molecule shown is the open-chain precursor, rcm bond

Chain of HIS-Keap1 full length / Biotin-Nrf2 (16-mer) (Q14145 whole entry): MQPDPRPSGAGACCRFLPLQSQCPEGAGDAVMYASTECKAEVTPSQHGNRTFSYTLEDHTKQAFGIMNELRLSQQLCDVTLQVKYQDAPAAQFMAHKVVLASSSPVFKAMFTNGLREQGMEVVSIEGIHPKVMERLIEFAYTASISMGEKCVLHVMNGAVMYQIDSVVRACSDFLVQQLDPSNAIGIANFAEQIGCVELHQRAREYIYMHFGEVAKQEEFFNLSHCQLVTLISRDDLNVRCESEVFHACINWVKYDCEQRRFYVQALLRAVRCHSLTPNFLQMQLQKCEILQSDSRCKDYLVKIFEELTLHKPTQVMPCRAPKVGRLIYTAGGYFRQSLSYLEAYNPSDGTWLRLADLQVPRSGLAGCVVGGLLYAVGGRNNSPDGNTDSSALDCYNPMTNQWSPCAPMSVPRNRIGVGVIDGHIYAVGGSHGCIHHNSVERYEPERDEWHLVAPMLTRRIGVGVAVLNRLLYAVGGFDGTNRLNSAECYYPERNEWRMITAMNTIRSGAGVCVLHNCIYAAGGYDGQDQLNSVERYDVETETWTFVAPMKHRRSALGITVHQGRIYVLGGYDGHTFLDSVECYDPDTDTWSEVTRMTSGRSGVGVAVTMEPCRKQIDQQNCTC

COC(=O)CC1c2ccc3c(c2)CN(CC3)C(=O)c2ccc(cc2)C=CCCCOc2cc(C)c1cn2 (stereo not drawn)
ring closure, yield of all isomers (from C=CCCCOc1cc(C)c(C(CC(=O)OC)c2ccc3c(c2)CN(C(=O)c2ccc(C=C)cc2)CC3)cn1, rcm bond, Grubbs catalyst): 64%

COC(=O)C[C@@H]1c2ccc3c(c2)CN(CC3)C(=O)c2ccc(cc2)C=CCCCCn2cnc3c(C)c1ccc32
ring closure, yield of all isomers (from C=CCCCCn1cnc2c(C)c([C@H](CC(=O)OC)c3ccc4c(c3)CN(C(=O)c3ccc(C=C)cc3)CC4)ccc21, rcm bond, Grubbs 2nd generation catalyst, 48.0 h): 27%

COC(=O)C[C@H]1c2ccc3c(c2)CN(CC3)C(=O)c2ccc(cc2)CC=CCCCn2nnc3c(C)c1ccc32
ring closure, yield of all isomers (from C=CCCCn1nnc2c(C)c([C@@H](CC(=O)OC)c3ccc4c(c3)CN(C(=O)c3ccc(CC=C)cc3)CC4)ccc21, rcm bond, Grubbs catalyst): 99%

O=C(O)CC1c2ccc(nc2)OCCCCOc2ccc(cc2)C(=O)N2CCc3ccc1cc3C2 (stereo not drawn) [Compound 211, 2-(4-oxo-31,32,33,34-tetrahydro-6,11-dioxa-3(7,2)-isoquinolina-1(5,2)-pyridina-5(1,4)-benzenacycloundecaphane-2-yl)acetic Acid]
ring closure, yield of all isomers (from COC(=O)CC(c1ccc(OCCCCOc2ccc(C(=O)OC(C)(C)C)cc2)nc1)c1ccc2c(c1)CN(C(=O)OC(C)(C)C)CC2, amide bond, 3 steps): 7.8%
pIC50 [1]: 7.97 and 7.61
pEC50 [2]: 5.76
pEC50 ([2]; Homo sapiens): 5.66
EC50 ([3]; Homo sapiens): 829 nM
EC50 [3]: 574 nM

amide of 7-(3-methoxy-3-oxo-1-(2-(pent-4-en-1-yloxy)pyrimidin-5-yl)propyl)-1,2,3,4-tetrahydroisoquinolin-2-ium chloride with 4-vinylbenzoic acid
ring closure, crude yield ([4]; 21-membered ring, Grubbs catalyst (General procedure 15)): 20%

amide of benzyl 3-(6-(pent-4-en-1-yloxy)pyridin-3-yl)-3-(1,2,3,4-tetrahydroisoquinolin-7-yl)propanoate with 1-methyl-5-vinyl-1H-pyrrolo[2,3-b]pyridine-2-carboxylic acid
ring closure, crude yield ([4]; 22-membered ring, Grubbs catalyst (General procedure 15)): 51%

amide of methyl 3-(1-(but-3-en-1-yl)-4-methyl-1H-benzo[d][1,2,3]triazol-5-yl)-3-(1,2,3,4-tetrahydroisoquinolin-7-yl)propanoate with 5-(but-3-en-1-yloxy)pyrazine-2-carboxylic acid
ring closure, crude yield ([4]; 23-membered ring, Grubbs catalyst (General procedure 7)): 42%
